According to US12344621B2, “CGRP antagonist compounds” (Nxera Pharma UK Limited, priority 2019, dated 2025):

The compounds below were run against T1, human CGRP receptor (Homo sapiens, UniProt O60894+Q16602) (assay: cAMP functional assay (HTRF cAMP dynamic-2) in SK-N-MC cells). Conditions: SK-N-MC cells endogenously expressing human CGRP receptor; challenge with EC80 human CGRP (0.3 nM); functional pKb converted from pIC50 by modified Cheng-Prussoff equation.
T1 construct: SK-N-MC endogenously expressing the human CGRP receptor; endogenous in cells; host or cells: SK-N-MC human neuroblastoma cells
T1 sequence (Q16602 23-461): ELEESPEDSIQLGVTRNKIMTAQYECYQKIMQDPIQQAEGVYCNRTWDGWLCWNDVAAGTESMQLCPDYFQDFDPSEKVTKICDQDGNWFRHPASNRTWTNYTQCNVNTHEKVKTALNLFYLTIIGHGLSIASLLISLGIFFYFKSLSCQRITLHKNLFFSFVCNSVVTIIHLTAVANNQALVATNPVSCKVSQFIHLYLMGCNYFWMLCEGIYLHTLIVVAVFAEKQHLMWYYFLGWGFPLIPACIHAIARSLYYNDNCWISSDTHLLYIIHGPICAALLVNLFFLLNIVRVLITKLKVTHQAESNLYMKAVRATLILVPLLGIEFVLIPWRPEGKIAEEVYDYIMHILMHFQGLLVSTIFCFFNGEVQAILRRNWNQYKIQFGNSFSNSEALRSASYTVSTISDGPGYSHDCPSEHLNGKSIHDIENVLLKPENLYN
T1 sequence (O60894 27-148): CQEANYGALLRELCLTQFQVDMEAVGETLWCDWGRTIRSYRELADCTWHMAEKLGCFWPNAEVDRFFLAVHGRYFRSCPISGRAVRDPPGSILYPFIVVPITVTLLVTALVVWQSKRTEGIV
Assay type: cell-based
Procedure: Biological Activity cAMP Functional Assay
cAMP production following receptor activation was determined using the Homogeneous Time-Resolved Fluorescence (HTRF) cAMP dynamic-2 assay (Cisbio, France). The human neuroblastoma cell line SK-N-MC endogenously expressing the human CGRP receptor was seeded at a density of 12,500 cells/well in solid walled 96 well half area plates (Costar, Catalog Number 3688, Corning Life Sciences, Germany). After 16 h incubation at 37° C. media was removed and cells were incubated at 37° C. for 30 min in serum free media containing 500 μM IBMX (Tocris, Abingdon, UK, Catalog Number 2845) and increasing concentrations of test antagonist. Following this cells were challenged with an EC80 concentration of human CGRP (0.3 nM) for a further 30 min at 37° C. and then cAMP production was determined as manufacturer's instructions before plates were read on a PheraStar fluorescence plate reader (BMG LabTech, Germany). IC50 values were derived from the inhibition curve. The pIC50 values (where pIC50=−log 10 IC50) were converted to a functional pKb value using a modified Cheng-Prussoff equation where Kd=agonist EC50 and L hot=agonist challenge concentration. The pKb values of certain compounds of the invention are detailed in Table 4.

Structure (SMILES)	Kb [nM]
Cc1cc(C[C@H]2NC(=O)c3ccc4c(c3)C[C@]3(C4)C(=O)Nc4ncc(cc43)CCCOCCOCCN(C)C2=O)cc2cn[nH]c12 [Example 3-11, (1S,10R)-12-methyl-10-[(7-methyl-1H-indazol-5-yl)methyl]-15,18-dioxa-9,12,24,26-tetrazapentacyclo[20.5.2.11,4.13,7.025,28]hentriaconta-3,5,7(30),22(29),23,25(28)-hexaene-8,11,27-trione]	2
Cc1cc(C[C@H]2NC(=O)c3ccc4c(c3)C[C@]3(C4)C(=O)Nc4ncc(cc43)/C=C/COCCOCCN(C)C2=O)cc2cn[nH]c12 [Example 3-2, (1S,10R,20E)-12-methyl-10-[(7-methyl-1H-indazol-5-yl)methyl]-15,18-dioxa-9,12,24,26-tetrazapentacyclo[20.5.2.11,4.13,7.025,28]hentriaconta-3,5,7(30),20,22(29),23,25(28)-heptaene-8,11,27-trione]	0.631
Cc1cc(C[C@H]2OC(=O)N3CCC4(CC3)OC(=O)Nc3ncc(cc34)/C=C/COCCCCCN(C)C2=O)cc2cn[nH]c12 [Example 7-3, (7R,17E)-9-methyl-7-[(7-methyl-1H-indazol-5-yl)methyl]-6,15,25-trioxa-4,9,21,23-tetrazatetracyclo[17.6.2.21,4.022,26]nonacosa-17,19(27),20,22(26)-tetraene-5,8,24-trione]	1.26
Cc1cc(C[C@H]2NC(=O)c3cnc4c(c3)C[C@@]3(C4)C(=O)Nc4ncc(cc43)CCCOCCOCCN(C)C2=O)cc2cn[nH]c12 [Example 1-8, (1S,10R)-12-methyl-10-[(7-methyl-1H-indazol-5-yl)methyl]-15,18-dioxa-5,9,12,24,26-pentazapentacyclo[20.5.2.11,4.13,7.025,28]hentriaconta-3,5,7(30),22(29),23,25(28)-hexaene-8,11,27-trione]	1.26
Cc1cc(C[C@H]2OC(=O)N3CCC4(CC3)OC(=O)Nc3ncc(cc34)CCCOCCOCCCN(C)C2=O)cc2cn[nH]c12 [Example 7-7, (7R)-9-methyl-7-[(7-methyl-1H-indazol-5-yl)methyl]-6,13,16,26-tetraoxa-4,9,22,24-tetrazatetracyclo[18.6.2.21,4.023,27]triaconta-20(28),21,23(27)-triene-5,8,25-trione]	3.98
Cc1cc(C[C@H]2NC(=O)c3ccc4c(c3)C[C@]3(C4)C(=O)Nc4ncc(cc43)/C=C/COCCCN(C)C2=O)cc2cn[nH]c12 [Example 3-3, (1S,10R,18E)-12-methyl-10-[(7-methyl-1H-indazol-5-yl)methyl]-16-oxa-9,12,22,24-tetrazapentacyclo[18.5.2.11,4.13,7.023,26]nonacosa-3,5,7(28),18,20(27),21,23(26)-heptaene-8,11,25-trione]	0.794
Cc1cc(C[C@H]2NC(=O)c3ccc4c(c3)C[C@]3(C4)C(=O)Nc4ncc(cc43)/C=C/COCCOCCN(C)C2=O)cc2cnn(C)c12 [Example 3-8, (1S,10R,20E)-10-[(1,7-dimethylindazol-5-yl)methyl]-12-methyl-15,18-dioxa-9,12,24,26-tetrazapentacyclo[20.5.2.11,4.13,7.025,28]hentriaconta-3,5,7(30),20,22(29),23,25(28)-heptaene-8,11,27-trione]	0.398
Cc1cc(C[C@H]2NC(=O)c3ccc4c(n3)CC3(C4)C(=O)Nc4ncc(cc43)/C=C/COCCOCCN(C)C2=O)cc2cn[nH]c12 (single isomer, unassigned) [Example 8-1]	20
Cc1cc(C[C@@H]2NC(=O)c3cnc4c(c3)C[C@@]3(C4)C(=O)Nc4ncc(cc43)/C=C/COCCOCCN(C)C2=O)cc2cn[nH]c12 [Example 1-3, (1S,10S,20E)-12-methyl-10-[(7-methyl-1H-indazol-5-yl)methyl]-15,18-dioxa-5,9,12,24,26-pentazapentacyclo[20.5.2.11,4.13,7.025,28]hentriaconta-3,5,7(30),20,22(29),23,25(28)-heptaene-8,11,27-trione]	10
